Assay results: PMC12378361, “Design and synthesis of photoswitchable desloratadine ligands for histamine H1 receptor photopharmacology” (RSC Medicinal Chemistry, 2025)
Values joined by “and” are separate entries in the source; they are usually repeats but may differ in a detail not shown here. Equal values may be shown once. Read-outs that look alike come from different tables or passages of the source.

What was measured:
human histamine H1R = molecular target: T1, human histamine H1R (Homo sapiens, UniProt P35367); assay: Competition radioligand binding with [3H]mepyramine on homogenates of HEK293T cells expressing HA-H1R; settings: for pKi shift: pKi PSScis – pKi trans (log unit)
T1 construct: expressed in transfected cells; host or cells: HEK293T cells, transient expression; cell homogenates
T1 sequence (P35367 whole entry): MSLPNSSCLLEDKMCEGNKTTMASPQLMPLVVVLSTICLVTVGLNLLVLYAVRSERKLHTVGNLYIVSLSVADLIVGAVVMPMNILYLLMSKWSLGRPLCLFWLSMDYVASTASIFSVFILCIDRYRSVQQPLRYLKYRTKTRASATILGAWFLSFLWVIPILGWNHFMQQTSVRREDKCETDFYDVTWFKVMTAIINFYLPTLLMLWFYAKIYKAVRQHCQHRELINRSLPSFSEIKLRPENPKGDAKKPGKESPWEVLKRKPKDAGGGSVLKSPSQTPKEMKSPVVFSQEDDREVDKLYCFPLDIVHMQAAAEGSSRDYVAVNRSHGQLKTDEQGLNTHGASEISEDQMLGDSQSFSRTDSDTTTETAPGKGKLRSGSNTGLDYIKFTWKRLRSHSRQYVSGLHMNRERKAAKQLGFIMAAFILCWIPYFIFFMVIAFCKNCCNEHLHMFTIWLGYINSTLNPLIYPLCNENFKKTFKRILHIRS
Protocol: For 10c and 12c, continuous illumination at 365 nm was used to counteract the short half-lives of their PSScis states, while for the other compounds PSScis states were obtained by pre-illumination with 360 nm.
Experimental methods – Pharmacology
The homogenates were stored at −20 °C. […] A]erwards, the cell homogenates were incubated with the respecIve (photo)ligands in […]
black 96 well plates (Greiner). During the incubaIon Ime, 10c and 12c were conInuousl y i l l umi nated with 365 nm (10 V, 2 mW, constant mode) light (96 LED array plates, LAD-1, LEDA-x, Bio Research Center Co., Ltd. Izumi, Japan) to account for thei r short-lived cis isomers. A]er a 4-hour incubaIon Ime, the binding reacIon was stopped using a harvester (PerkinElmer). Upon mulIple wa s h ste ps through a polyethyleneimine-coated GF/C ﬁlter plate (PerkinElmer) receptor-bound radioligand was captured by the GF/C ﬁlter plate. A]er drying the GF/C plate, the ﬁlter-bound radioligand was quanIﬁed by scinIllaIon counIng using MicroScint-O and the Wallac MicroBeta counter (PerkinElmer). […]

[1] = UV-vis absorption spectroscopy; settings: 25 μM in HBSS buffer containing 50% DMSO; for λmax cis: n–π* band; for λmax trans: π–π* band
Protocol: (§1) The photochemical properties of the photoswitchable ligands (Table 1, Fig. S2–S10) were first characterized by UV-vis absorption spectroscopy.
(§2) Experimental procedures – Photochemistry
(§3) equipped with a thermostated cell holder set at 20 °C. Fits of UV−vis spectroscopy data were generated
(§4) IlluminaIon for all photochemical experiments was executed using a Suter
(§5) instruments Lambda LS with a 300 W full-spectrum lamp connected to a Suter instruments Lambda
For photochemical analyses,
(§6) IlluminaIons for pharmacological experiments were performed in cylindrical clear glass vials with a
(§7) The typi cal di stance between l i ght source and vi al or cuvete was 2 cm.

[2] = Thermal relaxation of PSScis states; settings: for Approximate t1/2 (thermal relaxation of PSScis): HBSS buffer containing 50% DMSO; for thermal half-lives (approximated dark stability), order of magnitude in words: in buffer
Protocol: as §1, §2, §3, §4, §5
For photochemical analyses,
as §6, §7

[3] = Photostationary state by LC-MS at the isosbestic point; settings: 10 mM in DMSO; for PSStrans (area% trans): after illumination of PSScis state with 434 ± 9 nm; for PSScis (area% cis): after illumination of trans isomer with 360 ± 20 nm
Protocol: as §1, §2, §3, §4, §5
For photochemical analyses,
as §6, §7

hH1R = settings: cited from earlier work; for pKi hH1R PSScis: PSScis state; for pKi hH1R trans: trans isomer
gpH1R = system: gpH1R; parameters: method as in PMID 30628180; settings: cited from earlier work; for pA2 gpH1R PSScis: PSScis state; for pA2 gpH1R trans: trans isomer
[4] = PSScis state obtained by pre-illumination with 360 nm, mean ± SEM, n = 3, read-out: pKi PSScis (converted)
[5] = trans isomer (8: template, not photoswitchable), [3H]mepyramine, mean ± SEM, n = 3, read-out: pKi trans (converted)
[6] = Arrhenius extrapolation to 20 °C
[7] = continuous illumination at 365 nm during 4 h incubation at 25 °C, mean ± SEM, n = 3, read-out: pKi PSScis (converted)
[8] = trans isomer (8: template, not photoswitchable), [3H]mepyramine, mean ± SEM, n = 3

Clc1ccc2c(c1)CCc1ccc(/N=N/c3ccccc3)nc1C2=C1CCNCC1 [10a]
Ki (human histamine H1R; [4]): 15.8 nM
pKi shift (human histamine H1R): −0.5
Ki (human histamine H1R; [5]): 5.01 nM
Ki (human histamine H1R; trans isomer, read-out: Ki trans): 2 nM
fold higher H1R affinity compared to 11b (human histamine H1R; trans isomers): approximately 25 fold
light-induced affinity shift (human histamine H1R; trans vs PSScis): 3.2 fold
λmax cis [1]: 429 nm
λmax trans [1]: 332 nm
Approximate t1/2 (thermal relaxation of PSScis) [2, 6]: 38 days
thermal half-lives (approximated dark stability), order of magnitude in words [2]: months
PSStrans (area% trans) [3]: 85 area%
PSScis (area% cis) [3]: 91 area%

Clc1ccc2c(c1)CCc1cc(/N=N/c3ccccc3)cnc1C2=C1CCNCC1 [10b]
Ki (human histamine H1R; [4]): 3.98 nM
pKi shift (human histamine H1R): −0.3
Ki (human histamine H1R; [5]): 2 nM
λmax cis [1]: 430 nm
λmax trans [1]: 335 nm
Approximate t1/2 (thermal relaxation of PSScis) [2, 6]: 31 days
thermal half-lives (approximated dark stability), order of magnitude in words [2]: months
PSStrans (area% trans) [3]: 79 area%
PSScis (area% cis) [3]: 87 area%

Clc1ccc2c(c1)CCc1c(/N=N/c3ccccc3)ccnc1C2=C1CCNCC1 [10c]
Ki (human histamine H1R; [7]): 158 nM
pKi trans (human histamine H1R; [8]): 6.8 ± 0.0
Ki (human histamine H1R; [5]): 158 nM
λmax cis [1]: 419 nm
λmax trans [1]: 319 nm
Approximate t1/2 (thermal relaxation of PSScis) ([2]; 20 °C): 0.0104 days
thermal half-lives (approximated dark stability), order of magnitude in words [2]: minutes

Clc1cc2c(cc1/N=N/c1ccccc1)C(=C1CCNCC1)c1ncccc1CC2 [11a]
Ki (human histamine H1R; [4]): 251 nM
pKi shift (human histamine H1R): −0.2
Ki (human histamine H1R; [5]): ~158 nM and 158 nM
λmax cis [1]: 429 nm
λmax trans [1]: 340 nm
Approximate t1/2 (thermal relaxation of PSScis) [2, 6]: 78 days
thermal half-lives (approximated dark stability), order of magnitude in words [2]: months
PSStrans (area% trans) [3]: 79 area%
PSScis (area% cis) [3]: 97 area%

c1ccc(/N=N/c2ccc3c(c2)CCc2cccnc2C3=C2CCNCC2)cc1 [11b]
Ki (human histamine H1R; [4]): 501 nM
pKi shift (human histamine H1R): −0.6
Ki (human histamine H1R; [5]): 126 nM
λmax cis [1]: 435 nm
λmax trans [1]: 338 nm
Approximate t1/2 (thermal relaxation of PSScis) [2, 6]: 5 days
thermal half-lives (approximated dark stability), order of magnitude in words [2]: days
PSStrans (area% trans) [3]: 80 area%
PSScis (area% cis) [3]: 91 area%

Clc1ccc2c(c1/N=N/c1ccccc1)CCc1cccnc1C2=C1CCNCC1 [11c]
pKi PSScis (human histamine H1R; PSScis state obtained by pre-illumination with 360 nm, mean ± SEM, n = 3): <6.0
Ki (human histamine H1R; [4]): > 1000 nM
pKi trans (human histamine H1R; [8]): <6.0
Ki (human histamine H1R; [5]): > 1000 nM
λmax cis [1]: 419 nm
Approximate t1/2 (thermal relaxation of PSScis) [2, 6]: 211 days
thermal half-lives (approximated dark stability), order of magnitude in words [2]: months
PSStrans (area% trans) [3]: 82 area%
PSScis (area% cis) [3]: 67 area%

Clc1ccc2c(c1)CCc1cccnc1C2=C1CCN(Cc2ccc(/N=N/c3ccccc3)cc2)CC1 [12a]
Ki (human histamine H1R; [4]): 3.16 nM
pKi shift (human histamine H1R): −0.1
Ki (human histamine H1R; [5]): 2.51 nM
λmax cis [1]: 432 nm
λmax trans [1]: 327 nm
Approximate t1/2 (thermal relaxation of PSScis) [2, 6]: 19 days
thermal half-lives (approximated dark stability), order of magnitude in words [2]: days
PSStrans (area% trans) [3]: 83 area%
PSScis (area% cis) [3]: 93 area%

Clc1ccc2c(c1)CCc1cccnc1C2=C1CCN(Cc2cccc(/N=N/c3ccccc3)c2)CC1 [12b]
Ki (human histamine H1R; [4]): 6.31 nM
pKi shift (human histamine H1R): −0.1
Ki (human histamine H1R; [5]): 5.01 nM
λmax cis [1]: 423 nm
λmax trans [1]: 325 nm
Approximate t1/2 (thermal relaxation of PSScis) [2, 6]: 198 days
thermal half-lives (approximated dark stability), order of magnitude in words [2]: months
PSStrans (area% trans) [3]: 81 area%
PSScis (area% cis) [3]: 91 area%

Clc1ccc2c(c1)CCc1cccnc1C2=C1CCN(Cc2ccccc2/N=N/c2ccccc2)CC1 [12c]
Ki (human histamine H1R; [7]): 5.01 nM
pKi shift (human histamine H1R): −0.1
Ki (human histamine H1R; [5]): 3.98 nM
λmax trans [1]: 329 nm
Approximate t1/2 (thermal relaxation of PSScis) ([2]; 20 °C): 0.000521 days
thermal half-lives (approximated dark stability), order of magnitude in words [2]: seconds

CN1CCN(C2=Nc3ccc(Cl)cc3Oc3ccccc32)CC1 [compound 1]
pKi hH1R (hH1R): 8.1 ± 0.1

CN1CCN(/C(=N\c2ccc(/N=N/c3ccc(S(=O)(=O)O)cc3)cc2)c2ccc(Cl)cc2)CC1 [compound 2]
pA2 gpH1R PSScis (gpH1R): 4.7 ± 0.1
pA2 gpH1R trans (gpH1R): 5.9 ± 0.1

CN1CCN(/C(=N\c2ccc(/N=N/c3ccc([N+](=O)[O-])cc3)cc2)c2ccc(Cl)cc2)CC1 [compound 3]
pA2 gpH1R PSScis (gpH1R): 4.5 ± 0.1
pA2 gpH1R trans (gpH1R): 6.2 ± 0.1

CN1CCC(Oc2ccccc2Cc2ccccc2)CC1 [compound 4]
pKi hH1R (hH1R): 8.7 ± 0.1

CN1CCC(Oc2cccc(/N=N/c3ccccc3)c2)CC1 [compound 5]
pKi hH1R PSScis (hH1R): < 5.0
pKi hH1R trans (hH1R): < 5.0

CN1CCC(Oc2ccccc2/N=N/c2ccccc2)CC1 [compound 6]
pKi hH1R PSScis (hH1R): 5.1
pKi hH1R trans (hH1R): 5.2

CCOC(=O)N1CCC(=C2c3ccc(Cl)cc3CCc3cccnc32)CC1 [compound 7, loratadine]
pKi hH1R (hH1R): 6.8 ± 0.1

Cc1cncc(CN2CCC(=C3c4ccc(Cl)cc4CCc4cccnc43)CC2)c1 [compound 9, rupatadine]
pKi hH1R (hH1R): 8.4
